The target of one assay is T1, Human FXIIa (Homo sapiens, UniProt P00748).
T1 construct: active coagulation factor XII (FXIIa); purchased Enzyme Research Labs
T1 sequence (P00748 373-615 limits assumed): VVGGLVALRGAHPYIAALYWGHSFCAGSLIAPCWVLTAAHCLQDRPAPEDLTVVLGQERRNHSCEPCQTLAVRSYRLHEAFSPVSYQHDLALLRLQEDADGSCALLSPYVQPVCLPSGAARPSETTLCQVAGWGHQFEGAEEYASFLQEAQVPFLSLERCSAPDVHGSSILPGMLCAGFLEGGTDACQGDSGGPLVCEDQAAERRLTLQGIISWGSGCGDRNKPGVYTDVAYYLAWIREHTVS
T1 sequence (P00748 20-372 partner limits assumed): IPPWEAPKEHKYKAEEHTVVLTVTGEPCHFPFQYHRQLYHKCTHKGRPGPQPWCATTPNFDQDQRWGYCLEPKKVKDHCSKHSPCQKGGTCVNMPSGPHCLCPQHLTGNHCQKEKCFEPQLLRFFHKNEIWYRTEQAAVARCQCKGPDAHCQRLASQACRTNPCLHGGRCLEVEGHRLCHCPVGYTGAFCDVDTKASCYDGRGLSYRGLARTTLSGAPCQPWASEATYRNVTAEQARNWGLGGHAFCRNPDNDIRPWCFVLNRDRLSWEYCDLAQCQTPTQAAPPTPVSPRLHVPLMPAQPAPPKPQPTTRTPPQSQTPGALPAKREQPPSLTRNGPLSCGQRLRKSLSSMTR
Briefly: Factor XIIa (FXIIa) inhibitory activity, chromogenic substrate assay. Type of assay: biochemical. To be noted: Human FXIIa 12.5 nM, Pefachrome XIIa 400 μM, 10 min preincubation. In short, it runs like this: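 Activity was taken as the rate of absorbance increase at 405 nm, read at 37 °C after adding 400 μM (final) Pefachrome XIIa. Compounds spanning roughly 1–100 μM were first preincubated with enzyme for 10 min at room temperature in HEPES pH 7.4-buffered HBSS/TBS-Tween.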

For the next assay, the target named is T2, Human alpha-thrombin (Homo sapiens, UniProt P00734).
T2 construct: Human alpha-thrombin (Enzyme Research Labs); purchased Enzyme Research Labs
Briefly: Thrombin counterscreen for selectivity, fluorogenic substrate assay. Type of assay: biochemical. Particulars: Human alpha-thrombin 12.5 nM, Boc-Val-Pro-Arg-AMC 20 μM, 10 min preincubation. In short, it runs like this:
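Compounds, about 1–100 μM, preincubated 10 min at room temperature with enzyme, then Boc-Val-Pro-Arg-AMC added at 20 μM final.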
For orientation: A counterscreen serves to expose hits that act by an unwanted route or on another target.

Molecules are shown by their SMILES.

In general, IC50 refers to the concentration at which inhibition is half-maximal. The low end stands for greater potency in that assay, the high end for weaker potency in that assay. Consider `Cc1cc2c(C(=O)n3nc4c(c3N)CC(F)(F)CC4)cccc2[nH]1` [Example 121, (3-amino-5,5-difluoro-4,5,6,7-tetrahydro-2H-indazol-2-yl)(2-methyl-1H-indol-4-yl)methanone], for which the IC50 is 0.02 µM at Human FXIIa and 9 µM on Human alpha-thrombin.

As to `CCc1cc2c(C(=O)n3nc(N)c4c3CCCC4)cccc2n1C` (single isomer, unassigned) [Example 67, (3-amino-4,5,6,7-tetrahydroindazol-1-yl)(2-ethyl-1-methyl-1H-indol-4-yl)methanone], the IC50 against Human FXIIa and on Human alpha-thrombin was more than 50 µM in each case.

Take `Cc1cc2c(C(=O)n3nc(N)c4c3CCC(F)(F)C4)cccc2[nH]1` [Example 122, (3-amino-5,5-difluoro-4,5,6,7-tetrahydro-2H-indazol-1-yl)(2-methyl-1H-indol-4-yl)methanone]: the IC50 on Human FXIIa amounted to 0.7 µM; on Human alpha-thrombin it was 25 µM.

As for `CCn1cc(C(=O)n2nc3c(c2N)CCCC3)c2ccccc21` [Example 43, (3-amino-4,5,6,7-tetrahydroindazol-2-yl)(1-ethyl-1H-indol-3-yl)methanone], the IC50 is 7.5 µM against Human FXIIa and more than 100 µM on Human alpha-thrombin.

`Cc1cc2c(C(=O)n3nc4c(c3N)CCCC4)cccc2n1C` [Example 22, (3-Amino-4,5,6,7-tetrahydroindazol-2-yl)(1,2-dimethyl-1H-indol-4-yl)methanone]: the IC50 at Human FXIIa came to 0.04 µM; on Human alpha-thrombin it was 20 µM.

Regarding `CCN1CCC(C(=O)n2nc(N)c3c2CCCC3)c2ccccc21` (single isomer, unassigned) [Example 75, (3-amino-4,5,6,7-tetrahydroindazol-1-yl)(1-ethyl-1,2,3,4-tetrahydroquinolin-4-yl)methanone], the half-maximal inhibitory concentration (IC50) against Human FXIIa and against Human alpha-thrombin was more than 100 µM throughout.

`CCc1csc(C)c1C(=O)n1nc(N)c2c1CCCC2` (single isomer, unassigned) [Example 19, (3-amino-4,5,6,7-tetrahydroindazol-1-yl)(4-ethyl-2-methylthiophen-3-yl)methanone]: the 50% inhibitory concentration (IC50) at Human FXIIa and at Human alpha-thrombin was more than 100 µM throughout.

For the compound `Nc1c2c(nn1C(=O)C1OCCc3ccccc31)CCCC2` (single isomer, unassigned) [Example 13, (3-Amino-4,5,6,7-tetrahydroindazol-2-yl)(isochroman-1-yl)methanone], the half-maximal inhibitory concentration (IC50) against Human FXIIa is 5.6 µM; on Human alpha-thrombin, 77 µM.

In the case of `Nc1c2c(nn1C(=O)c1coc3ccccc13)CCCC2` [Example 41, (3-amino-4,5,6,7-tetrahydroindazol-2-yl)(benzofuran-3-yl)methanone], the IC50 at Human FXIIa was 1.2 µM; against Human alpha-thrombin, more than 100 µM.

Turning to `Cn1ccc2c(C(=O)n3nc(N)c4c3CCCC4)cccc21` (single isomer, unassigned) [Example 8, (3-amino-4,5,6,7-tetrahydroindazol-1-yl)(1-methyl-1H-indol-4-yl)methanone], the IC50 against Human FXIIa and at Human alpha-thrombin was more than 50 µM in each case.

For `Nc1c2c(nn1C(=O)C1CCCc3ccccc31)CCCC2` (single isomer, unassigned) [Example 6, (R*)-(3-amino-4,5,6,7-tetrahydroindazol-2-yl)(1,2,3,4-tetrahydronaphthalen-1-yl)methanone], the values for the IC50 on Human FXIIa and on Human alpha-thrombin were not below 50 µM and more than 50 µM, respectively.

Take `CCn1c(C)cc2c(C(=O)n3nc4c(c3N)CCCC4)cccc21` [Example 38, (3-amino-4,5,6,7-tetrahydroindazol-2-yl)(1-ethyl-2-methyl-1H-indol-4-yl)methanone]: the IC50 on Human FXIIa was found to be 0.04 µM; against Human alpha-thrombin it was 44 µM.

For `Nc1c2c(nn1C(=O)[C@H]1CCNc3ccccc31)CC[C@H](O)C2` (single isomer, unassigned) [Example 170, ((5S*)-3-amino-5-hydroxy-4,5,6,7-tetrahydroindazol-2-yl)((4S*)-1,2,3,4-tetrahydroquinolin-4-yl)methanone], the IC50 on Human FXIIa was 6 µM; at Human alpha-thrombin it was more than 150 µM.

For `Cc1cccc2c1NCC[C@@H]2C(=O)n1nc2c(c1N)C[C@H](O)CC2` (single isomer, unassigned) [Example 218, ((5R*)-3-amino-5-hydroxy-4,5,6,7-tetrahydro-2H-indazol-2-yl)((4S*)-8-methyl-1,2,3,4-tetrahydroquinolin-4-yl)methanone], the concentration for half-maximal inhibition (IC50) at Human FXIIa was 0.05 µM; at Human alpha-thrombin, more than 90 µM.

With `CO[C@@H]1CCc2nn(C(=O)[C@@H]3CCNc4ccc(F)cc43)c(N)c2C1` (single isomer, unassigned) [Example 180, ((5R*)-3-amino-5-methoxy-4,5,6,7-tetrahydroindazol-2-yl)((4R*)-6-fluoro-1,2,3,4-tetrahydroquinolin-4-yl)methanone], the values for the 50% inhibitory concentration (IC50) against Human FXIIa and on Human alpha-thrombin were 0.09 µM and more than 80 µM, respectively.

As to `Nc1c2c(nn1C(=O)c1cccc3c1ccn3Cc1ccccc1)CCCC2` [Example 30, (3-amino-4,5,6,7-tetrahydroindazol-2-yl)(1-benzyl-1H-indol-4-yl)methanone], the IC50 against Human FXIIa is 5 µM; against Human alpha-thrombin it was more than 70 µM.

`Nc1c2c(nn1C(=O)[C@@H]1CCNc3ccccc31)CC[C@H](O)C2` (single isomer, unassigned) [Example 169, ((5S*)-3-amino-5-hydroxy-4,5,6,7-tetrahydroindazol-2-yl)((4R*)-1,2,3,4-tetrahydroquinolin-4-yl)methanone]: the figures for the half-maximal inhibitory concentration (IC50) at Human FXIIa and at Human alpha-thrombin were 60 µM and more than 100 µM, respectively.

Turning to `Nc1c2c(nn1C(=O)[C@H]1CCNc3ccc(Cl)cc31)CC[C@@H](O)C2` (single isomer, unassigned) [Example 148, ((5R*)-3-amino-5-hydroxy-4,5,6,7-tetrahydroindazol-2-yl)((4S*)-6-chloro-1,2,3,4-tetrahydroquinolin-4-yl)methanone], the concentration for half-maximal inhibition (IC50) on Human FXIIa is 0.04 µM; on Human alpha-thrombin, more than 80 µM.

As to `Nc1c2c(nn1C(=O)c1cccc3[nH]c(C4CC4)cc13)CCCC2` (single isomer, unassigned) [Example 53, (3-amino-4,5,6,7-tetrahydroindazol-2-yl)(2-cyclopropyl-1H-indol-4-yl)methanone], the IC50 on Human FXIIa is 0.02 µM; on Human alpha-thrombin it was 28 µM.

As to `Cc1cc2c([nH]1)CCCC2C(=O)n1nc2c(c1N)CCCC2` (stereo not shown) [Example 81, (3-amino-4,5,6,7-tetrahydroindazol-2-yl)(2-methyl-4,5,6,7-tetrahydro-1H-indol-4-yl)methanone], the IC50 against Human FXIIa was 0.3 µM; against Human alpha-thrombin, more than 50 µM.

For `CC(C)n1ccc2c(C(=O)n3nc4c(c3N)CCCC4)cccc21` [Example 29, (3-amino-4,5,6,7-tetrahydroindazol-2-yl)(1-isopropyl-1H-indol-4-yl)methanone], the IC50 is 0.15 µM at Human FXIIa and more than 50 µM on Human alpha-thrombin.

On to `CCc1cscc1C(=O)n1nc2c(c1N)CCCC2` (single isomer, unassigned) [Example 11, (3-Amino-4,5,6,7-tetrahydroindazol-2-yl)(4-ethylthiophen-3-yl)methanone], for which the IC50 against Human FXIIa is 0.2 µM; on Human alpha-thrombin it was more than 50 µM.

For `Cc1cc2ccc(C(=O)n3nc(N)c4c3CCCC4)cc2o1` [Example 61, (3-amino-4,5,6,7-tetrahydroindazol-1-yl)(2-methylbenzofuran-6-yl)methanone], the IC50 against Human FXIIa was more than 50 µM; on Human alpha-thrombin, 20 µM.

For the origin of these results see patent publication US10538512B2, “Aminoacylindazole immunomodulators for treatment of autoimmune diseases” (The Rockefeller University, priority 2016, dated 2020).
